Measured values published in patent US20240270762A1, “PENICILLIN-BINDING PROTEIN INHIBITORS” (priority 2021, published 2024).
≈ marks a conversion by molar mass, not a printed value.

Columns and labels:
[1] = system: N. gonorrhoeae CDC-0197; test: Liquid broth MIC in Fastidious broth; conditions: Neisseria gonorrhoeae, CDC0197, read-out: Minimum Inhibitory Concentration (MIC), N. gonorrhoeae CDC-0197
[2] = system: K. pneumoniae 848844; test: microbe, parasite or virus in culture; assay type: cell-based; conditions: Klebsiella pneumoniae, 848844, read-out: MIC K. pneumoniae 848844
[3] = system: A. baumannii ATCC 19606; test: microbe, parasite or virus in culture; assay type: cell-based; conditions: Acinetobacter baumannii, ATCC19606, read-out: MIC, A. baumannii ATCC 19606
[4] = system: P. aeruginosa ATCC 35151; test: microbe, parasite or virus in culture; assay type: cell-based; conditions: Pseudomonas aeruginosa, ATCC35151, read-out: MIC P. aeruginosa ATCC 35151
[5] = system: E. coli 901C; test: microbe, parasite or virus in culture; assay type: cell-based; conditions: Escherichia coli, read-out: MIC E. coli 901C
[6] = system: N. gonorrhoeae WHO K; test: Liquid broth MIC in Fastidious broth; conditions: Neisseria gonorrhoeae, read-out: Minimum Inhibitory Concentration (MIC), N. gonorrhoeae WHO K
[7] = system: N. gonorrhoeae ATCC 49226; test: Liquid broth MIC in Fastidious broth; conditions: Neisseria gonorrhoeae, ATCC49226, read-out: Minimum Inhibitory Concentration (MIC), N. gonorrhoeae ATCC 49226
[8] = system: N. gonorrhoeae FA1090; test: Liquid broth MIC in Fastidious broth; conditions: Neisseria gonorrhoeae, FA1090, read-out: Minimum Inhibitory Concentration (MIC), N. gonorrhoeae FA 1090
[9] = system: P. aeruginosa ATCC 27853; test: microbe, parasite or virus in culture; assay type: cell-based; conditions: Pseudomonas aeruginosa, ATCC27853, read-out: MIC P. aeruginosa ATCC 27853
[10] = system: K. pneumoniae SI-117; test: microbe, parasite or virus in culture; assay type: cell-based; conditions: Klebsiella pneumoniae, SI117, read-out: MIC K. pneumoniae SI-117
[11] = system: N. gonorrhoeae WHO Q; test: Liquid broth MIC in Fastidious broth; conditions: Neisseria gonorrhoeae, read-out: Minimum Inhibitory Concentration (MIC), N. gonorrhoeae WHO Q
[12] = system: E. coli ATCC 25922; test: microbe, parasite or virus in culture; assay type: cell-based; conditions: Escherichia coli, ATCC25922, read-out: MIC E. coli 25922
[13] = system: K. pneumoniae UMM; test: microbe, parasite or virus in culture; assay type: cell-based; conditions: Klebsiella pneumoniae, read-out: MIC K. pneumoniae UMM
[14] = system: E. coli AG100A; test: Broth microdilution MIC in CAMHB; assay type: cell-based; conditions: Escherichia coli, read-out: MIC E. coli AG100A
[15] = system: N. gonorrhoeae WHO L; test: Liquid broth MIC in Fastidious broth; conditions: Neisseria gonorrhoeae, read-out: Minimum Inhibitory Concentration (MIC), N. gonorrhoeae WHO L
[16] = biological target: T1, PBP3 from Pseudomonas aeruginosa (PAO1) (Pseudomonas aeruginosa, UniProt G3XD46); test: Bocillin-FL fluorescence polarization competition binding, P. aeruginosa PBP3; conditions: Binding affinity to P. aeruginosa PBP3; fluorescence polarization competition binding assay using Bocillin-FL; read-out: P. aeruginosa PBP3 Potency
T1 construct: made in house
T1 sequence (G3XD46 whole entry): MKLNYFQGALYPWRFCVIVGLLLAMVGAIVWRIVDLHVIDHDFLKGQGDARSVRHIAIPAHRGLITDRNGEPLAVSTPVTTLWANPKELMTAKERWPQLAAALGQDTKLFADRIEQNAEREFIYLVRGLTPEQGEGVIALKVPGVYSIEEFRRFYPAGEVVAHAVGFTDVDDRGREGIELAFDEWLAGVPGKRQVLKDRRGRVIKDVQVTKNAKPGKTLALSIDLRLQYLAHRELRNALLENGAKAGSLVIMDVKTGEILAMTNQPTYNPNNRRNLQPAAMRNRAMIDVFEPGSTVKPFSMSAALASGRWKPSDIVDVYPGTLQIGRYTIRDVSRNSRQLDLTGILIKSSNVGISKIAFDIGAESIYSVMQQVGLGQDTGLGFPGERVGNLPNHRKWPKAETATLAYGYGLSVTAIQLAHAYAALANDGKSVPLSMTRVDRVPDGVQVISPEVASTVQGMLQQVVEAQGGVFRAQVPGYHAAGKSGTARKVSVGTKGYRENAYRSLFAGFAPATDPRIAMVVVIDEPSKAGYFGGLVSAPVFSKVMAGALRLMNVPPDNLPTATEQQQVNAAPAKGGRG
Method in brief: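 Purified PBPs pre-incubated with inhibitor (E. coli PBP3 1.5 μM, 30 min; P. aeruginosa PBP3 0.75 μM, A. baumannii PBP1a 1 μM and PBP3 0.2 μM, 15 min), then Bocillin-FL 0.1 μM (0.05 μM for PBP1a) added; FP read up to 60 min. EC50 = concentration halving bound Bocillin-FL.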

Row | Structure (SMILES) | MIC [1] | MIC [2] | MIC [3] | MIC [4] | MIC [5] | MIC [6] | MIC [7] | MIC [8] | MIC [9] | MIC [10] | MIC [11] | MIC [12] | MIC [13] | MIC [14] | MIC [15] | IC50 [16]
1 | O=C(O)c1cccc2c1OB(O)[C@@H](NC(=O)[C@H](NC(=O)c1cnc3sccn3c1=O)c1ccc(P(=O)(O)O)cc1)C2 (single isomer, unassigned) [Example 195] | 4 to 8 µg/mL (≈ 6.69 to 13.4 µM) | > 128 µg/mL | > 128 µg/mL | < 1 µg/mL | 2 to 4 µg/mL (≈ 3.34 to 6.69 µM) | 16 to 32 µg/mL (≈ 26.7 to 53.5 µM) | 4 to 8 µg/mL (≈ 6.69 to 13.4 µM) | < 1 µg/mL | 32 to 64 µg/mL (≈ 53.5 to 107 µM) | > 128 µg/mL | 4 to 8 µg/mL (≈ 6.69 to 13.4 µM) | > 128 µg/mL | > 128 µg/mL | > 128 µg/mL | 16 to 32 µg/mL (≈ 26.7 to 53.5 µM) | < 10 µM
2 | O=C(O)c1c(F)ccc2c1OB(O)[C@@H](NC(=O)C(NC(=O)N1CCN(Cc3ccc(O)c(O)c3Cl)C(=O)C1=O)c1ccc(P(=O)(O)O)cc1)C2 (stereo partly drawn) [Example 8, (3R)-3-(2-(4-(2-chloro-3,4-dihydroxybenzyl)-2,3-dioxopiperazine-1-carboxamido)-2-(4-phosphonophenyl)acetamido)-7-fluoro-2-hydroxy-3,4-dihydro-2H-benzo[e][1,2]oxaborinine-8-carboxylic acid] | 1 to 2 µg/mL (≈ 1.36 to 2.72 µM) | > 128 µg/mL | < 1 µg/mL | < 1 µg/mL | < 1 µg/mL | 1 to 2 µg/mL (≈ 1.36 to 2.72 µM) | < 1 µg/mL | < 1 µg/mL | < 1 µg/mL | 8 to 16 µg/mL (≈ 10.9 to 21.8 µM) | < 1 µg/mL | 2 to 4 µg/mL (≈ 2.72 to 5.44 µM) | 2 to 4 µg/mL (≈ 2.72 to 5.44 µM) | < 1 µg/mL | 4 to 8 µg/mL (≈ 5.44 to 10.9 µM) | < 10 µM
3 | CS(=O)(=O)N1CCN(C(=O)NC(C(=O)N[C@H]2Cc3cccc(C(=O)O)c3OB2O)c2ccc(P(=O)(O)O)c(Cl)c2)C1=O (stereo partly drawn) [Example 11, (3R)-3-(2-(3-chloro-4-phosphonophenyl)-2-(3-(methylsulfonyl)-2-oxoimidazolidine-1-carboxamido)acetamido)-2-hydroxy-3,4-dihydro-2H-benzo[e][1,2]oxaborinine-8-carboxylic acid] | < 1 µg/mL | > 128 µg/mL | > 128 µg/mL | 8 to 16 µg/mL (≈ 12.4 to 24.8 µM) | < 1 µg/mL | < 1 µg/mL | < 1 µg/mL | < 1 µg/mL | > 128 µg/mL | > 128 µg/mL | < 1 µg/mL | 32 to 64 µg/mL (≈ 49.6 to 99.3 µM) | > 128 µg/mL | 8 to 16 µg/mL (≈ 12.4 to 24.8 µM) | 1 to 2 µg/mL (≈ 1.55 to 3.1 µM) | < 10 µM
4 | CS(=O)(=O)N1CCN(C(=O)NC(C(=O)N[C@H]2Cc3cccc(C(=O)O)c3OB2O)c2ccc(P(=O)(O)O)c(F)c2)C1=O (stereo partly drawn) [Example 12, (3R)-3-(2-(3-fluoro-4-phosphonophenyl)-2-(3-(methylsulfonyl)-2-oxoimidazolidine-1-carboxamido)acetamido)-2-hydroxy-3,4-dihydro-2H-benzo[e][1,2]oxaborinine-8-carboxylic acid] | < 1 µg/mL | > 128 µg/mL | 32 to 64 µg/mL (≈ 50.9 to 102 µM) | 8 to 16 µg/mL (≈ 12.7 to 25.5 µM) | < 1 µg/mL | < 1 µg/mL | < 1 µg/mL | < 1 µg/mL | > 128 µg/mL | > 128 µg/mL | < 1 µg/mL | 32 to 64 µg/mL (≈ 50.9 to 102 µM) | > 128 µg/mL | 8 to 16 µg/mL (≈ 12.7 to 25.5 µM) | < 1 µg/mL | < 10 µM
5 | NC(C(=O)N[C@H]1Cc2ccc(F)c(C(=O)O)c2OB1O)c1ccc(P(=O)(O)O)cc1 (stereo partly drawn) [Example 14, (3R)-3-(2-amino-2-(4-phosphonophenyl)acetamido)-7-fluoro-2-hydroxy-3,4-dihydro-2H-benzo[e][1,2]oxaborinine-8-carboxylic acid] | > 64 µg/mL | > 128 µg/mL | > 128 µg/mL | > 128 µg/mL | > 128 µg/mL | > 64 µg/mL | > 64 µg/mL | > 64 µg/mL | > 128 µg/mL | > 128 µg/mL | > 64 µg/mL | > 128 µg/mL | > 128 µg/mL | > 128 µg/mL | > 64 µg/mL | > 250 µM
6 | CS(=O)(=O)N1CCN(C(=O)N[C@@H](C(=O)N[C@H]2Cc3ccc(F)c(C(=O)O)c3OB2O)c2ccc(P(=O)(O)O)c(F)c2F)C1=O [Example 16, (R)-3-((R)-2-(2,3-difluoro-4-phosphonophenyl)-2-(3-(methylsulfonyl)-2-oxoimidazolidine-1-carboxamido)acetamido)-7-fluoro-2-hydroxy-3,4-dihydro-2H-benzo[e][1,2]oxaborinine-8-carboxylic acid] | < 1 µg/mL | > 128 µg/mL | > 128 µg/mL | 2 to 4 µg/mL (≈ 3.01 to 6.02 µM) | < 1 µg/mL | < 1 µg/mL | < 1 µg/mL | < 1 µg/mL | > 128 µg/mL | > 128 µg/mL | < 1 µg/mL | > 128 µg/mL | > 128 µg/mL | 32 to 64 µg/mL (≈ 48.2 to 96.3 µM) | < 1 µg/mL | < 10 µM
7 | CS(=O)(=O)N1CCN(C(=O)NC(C(=O)N[C@H]2Cc3cccc(C(=O)O)c3OB2O)c2ccc(P(=O)(O)O)c(O)c2)C1=O (stereo partly drawn) [Example 17, (3R)-2-hydroxy-3-(2-(3-hydroxy-4-phosphonophenyl)-2-(3-(methylsulfonyl)-2-oxoimidazolidine-1-carboxamido)acetamido)-3,4-dihydro-2H-benzo[e][1,2]oxaborinine-8-carboxylic acid] | < 1 µg/mL | > 128 µg/mL | 2 to 4 µg/mL (≈ 3.19 to 6.39 µM) | < 1 µg/mL | < 1 µg/mL | < 1 µg/mL | < 1 µg/mL | < 1 µg/mL | 32 to 64 µg/mL (≈ 51.1 to 102 µM) | > 128 µg/mL | < 1 µg/mL | 32 to 64 µg/mL (≈ 51.1 to 102 µM) | 32 to 64 µg/mL (≈ 51.1 to 102 µM) | 8 to 16 µg/mL (≈ 12.8 to 25.5 µM) | < 1 µg/mL | < 10 µM
